Test results from ChEMBL document CHEMBL1201862, “PubChem BioAssay data set” (2004).
Activity calls are given as the source filed them.

Columns and labels:
[1] = molecular target: G-protein coupled receptor 35 (Homo sapiens, UniProt Q9HC97); test: inhibition of zaprinast-stimulated GPR35 beta-arrestin translocation – imaging, U2OS, beta-arrestin-GFP, zaprinast agonist, primary screen (AID 2058); assay type: functional;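 note: antagonist potency meaning inhibition of agonist-induced arrestin redistribution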
[2] = molecular target: Sphingosine 1-phosphate receptor 2 (Homo sapiens, UniProt O95136); test: Dose Response Cell Based Assay for Antagonists of the S1P2 Receptor. [Related pubchem assays: 856, 736 ]; assay type: functional
[3] = HPDE-C7 pancreatic duct cell viability loss – fluorescence, HTS (AID 430); assay type: functional, cell-based; conditions: Homo sapiens
[4] = Trypanosoma cruzi growth suppression in host cells – NIH3T3 host cells, beta-gal luminescence, confirmation (AID 2044); assay type: functional, cell-based;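 note: intracellular parasites grown in NIH/3T3 mouse fibroblasts as host cells; luminescent beta-galactosidase reporter signal from transgenic T. cruzi replicating inside host cells; inhibitors lower the luminescence signal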
[5] = microbe, parasite or virus in culture; assay type: functional; conditions: Mycobacterium tuberculosis
[6] = viability loss of HPDE-C7K cells – cell-based, fluorescence, HTS, primary screen (AID 431); assay type: functional; conditions: Homo sapiens
[7] = NIH3T3 cell viability loss – ATP luminescence, mouse fibroblasts, counter-screen, dose response (AID 2010); assay type: functional, cell-based;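 note: cells exposed to compound for about 90 hours before reading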
[8] = molecular target: T1, Heat shock factor protein 1 (Mus musculus, UniProt P38532); test: enhancement of HSF1-driven luciferase signal – cell-based, NIH3T3, luminescence, dose retest, confirmation (AID 435004); assay type: functional;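 note: stress induced by proteasome inhibitor MG132 added 30 min after compound; luciferase reporter driven by HSF1 response element in NIH3T3 cells; actives raise luminescence as potentiators of the MG132 stress response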
T1 sequence (P38532 whole entry): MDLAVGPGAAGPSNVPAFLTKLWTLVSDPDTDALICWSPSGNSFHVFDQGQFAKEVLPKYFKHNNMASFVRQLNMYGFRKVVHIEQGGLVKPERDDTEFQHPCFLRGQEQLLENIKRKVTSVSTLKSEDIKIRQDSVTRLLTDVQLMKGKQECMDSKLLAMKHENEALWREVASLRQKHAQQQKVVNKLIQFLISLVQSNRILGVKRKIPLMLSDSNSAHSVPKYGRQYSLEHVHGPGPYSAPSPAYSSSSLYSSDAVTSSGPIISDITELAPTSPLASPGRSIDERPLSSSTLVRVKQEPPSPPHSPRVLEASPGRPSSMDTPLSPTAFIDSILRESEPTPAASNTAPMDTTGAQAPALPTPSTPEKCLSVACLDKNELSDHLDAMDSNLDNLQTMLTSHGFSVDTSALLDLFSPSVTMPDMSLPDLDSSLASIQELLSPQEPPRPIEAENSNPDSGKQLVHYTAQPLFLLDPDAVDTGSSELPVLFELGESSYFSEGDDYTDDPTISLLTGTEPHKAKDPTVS

[9] = molecular target: Eukaryotic translation initiation factor 4H (Homo sapiens, UniProt Q15056); test: eIF4H binding inhibition – biochemical, uHTS, fluorescence polarization, translation initiation inhibitor project, primary screen (AID 2012)
[10] = molecular target: Polyadenylate-binding protein 1 (Homo sapiens, UniProt P11940); test: blockers of PABP interaction with poly(A) – biochemical, fluorescence polarization, […] (AID 2014)
[11] = molecular target: Cyclin-dependent kinase 5/CDK5 activator 1 (Homo sapiens, UniProt Q00535); test: blockade of human CDK5 activity – biochemical, cherry-picked samples, set 2, dose response (AID 504545)
[12] = molecular target: Dual specificity tyrosine-phosphorylation-regulated kinase 1A (Rattus norvegicus, UniProt Q63470); assay type: biochemical, Homo sapiens
[13] = Luminescence-based cell-based high throughput dose response assay to identify activators of the DAF-12 from the parasite S. stercoralis (ssDAF-12).; assay type: functional
[14] = molecular target: T2, Oxysterols receptor LXR-beta (Homo sapiens, UniProt P55055); test: LXR agonists, Gal4 luciferase reporter, dose response, counter-screen for ssDAF-12 agonist project, cell-based, luminescence, HEK293, S. stercoralis campaign (AID 720737); assay type: functional; conditions: read-out: IC50 (the source's name)
T2 sequence (P55055 whole entry): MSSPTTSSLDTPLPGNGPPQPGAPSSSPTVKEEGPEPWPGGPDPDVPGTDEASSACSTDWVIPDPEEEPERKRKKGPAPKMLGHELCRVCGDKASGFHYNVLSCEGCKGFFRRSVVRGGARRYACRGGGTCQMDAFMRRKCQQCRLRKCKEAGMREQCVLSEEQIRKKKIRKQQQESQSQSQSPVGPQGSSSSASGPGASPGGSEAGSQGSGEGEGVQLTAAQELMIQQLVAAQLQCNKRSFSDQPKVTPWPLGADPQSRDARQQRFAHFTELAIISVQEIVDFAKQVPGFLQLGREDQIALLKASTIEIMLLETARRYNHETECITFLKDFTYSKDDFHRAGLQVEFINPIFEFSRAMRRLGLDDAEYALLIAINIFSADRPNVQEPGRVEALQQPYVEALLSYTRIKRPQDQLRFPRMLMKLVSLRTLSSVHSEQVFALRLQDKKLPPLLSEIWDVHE

[15] = HEK-293T cell viability reduction – luminescence, B-cell screen hits, cytotoxicity control for BCR NF-kB inhibitor project, dose response (AID 489021); assay type: functional, cell-based;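 note: HEK-293T cells carrying an NF-kB luciferase reporter; cells exposed to compound for about 14 hours before viability readout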
[16] = molecular target: G2/mitotic-specific cyclin-B1 (Homo sapiens, UniProt P14635); test: Counterscreen assay for inhibitors of Wee1 degradation: dose response cell-based assay to identify inhibitors of cyclin B degradation. [Related pubchem assays: 1410, 1321 ]; assay type: functional
Wee1-like protein kinase = Wee1-like protein kinase (Homo sapiens, UniProt P30291); test: Dose Response Cell-based Assay for Inhibitors of Wee1 Degradation. [Related pubchem assays: 1410, 1321 ]; assay type: functional
Chain of Wee1-like protein kinase (P30291 whole entry): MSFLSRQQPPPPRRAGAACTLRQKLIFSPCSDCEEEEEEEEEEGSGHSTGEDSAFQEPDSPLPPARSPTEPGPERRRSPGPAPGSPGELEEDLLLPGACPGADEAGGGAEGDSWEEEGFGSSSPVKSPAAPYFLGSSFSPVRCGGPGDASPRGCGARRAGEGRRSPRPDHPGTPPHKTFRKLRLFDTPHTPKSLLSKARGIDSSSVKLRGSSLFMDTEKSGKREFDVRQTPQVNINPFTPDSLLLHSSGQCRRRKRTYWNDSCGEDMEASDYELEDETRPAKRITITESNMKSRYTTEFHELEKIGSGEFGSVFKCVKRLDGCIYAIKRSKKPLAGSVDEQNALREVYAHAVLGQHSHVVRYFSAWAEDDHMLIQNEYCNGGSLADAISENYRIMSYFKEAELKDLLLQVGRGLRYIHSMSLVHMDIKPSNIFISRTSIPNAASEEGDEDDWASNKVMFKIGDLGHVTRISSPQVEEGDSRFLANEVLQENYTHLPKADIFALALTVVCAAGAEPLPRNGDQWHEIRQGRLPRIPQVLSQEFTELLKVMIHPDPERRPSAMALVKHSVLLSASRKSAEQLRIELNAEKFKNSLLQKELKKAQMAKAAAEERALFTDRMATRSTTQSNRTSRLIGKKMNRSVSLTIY

Chain of Cyclin-dependent kinase 5/CDK5 activator 1 (Q00535 whole entry): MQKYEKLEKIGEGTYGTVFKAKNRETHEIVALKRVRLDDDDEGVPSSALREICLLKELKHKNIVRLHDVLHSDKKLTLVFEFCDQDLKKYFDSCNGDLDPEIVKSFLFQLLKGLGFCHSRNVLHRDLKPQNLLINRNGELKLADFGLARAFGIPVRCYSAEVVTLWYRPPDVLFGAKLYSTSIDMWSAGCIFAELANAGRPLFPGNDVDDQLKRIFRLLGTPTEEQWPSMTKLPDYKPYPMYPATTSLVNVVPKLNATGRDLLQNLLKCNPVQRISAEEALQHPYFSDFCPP
Chain of Cyclin-dependent kinase 5/CDK5 activator 1 (Q15078 whole entry, further chain): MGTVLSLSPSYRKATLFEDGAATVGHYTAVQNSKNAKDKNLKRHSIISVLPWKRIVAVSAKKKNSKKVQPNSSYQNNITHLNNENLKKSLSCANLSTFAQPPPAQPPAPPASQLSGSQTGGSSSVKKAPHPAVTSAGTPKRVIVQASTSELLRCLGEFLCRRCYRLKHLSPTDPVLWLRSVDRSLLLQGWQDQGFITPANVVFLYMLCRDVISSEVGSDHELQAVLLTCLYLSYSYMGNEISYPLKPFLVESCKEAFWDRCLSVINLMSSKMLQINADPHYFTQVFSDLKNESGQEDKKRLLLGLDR
Chain of G2/mitotic-specific cyclin-B1 (P14635 whole entry): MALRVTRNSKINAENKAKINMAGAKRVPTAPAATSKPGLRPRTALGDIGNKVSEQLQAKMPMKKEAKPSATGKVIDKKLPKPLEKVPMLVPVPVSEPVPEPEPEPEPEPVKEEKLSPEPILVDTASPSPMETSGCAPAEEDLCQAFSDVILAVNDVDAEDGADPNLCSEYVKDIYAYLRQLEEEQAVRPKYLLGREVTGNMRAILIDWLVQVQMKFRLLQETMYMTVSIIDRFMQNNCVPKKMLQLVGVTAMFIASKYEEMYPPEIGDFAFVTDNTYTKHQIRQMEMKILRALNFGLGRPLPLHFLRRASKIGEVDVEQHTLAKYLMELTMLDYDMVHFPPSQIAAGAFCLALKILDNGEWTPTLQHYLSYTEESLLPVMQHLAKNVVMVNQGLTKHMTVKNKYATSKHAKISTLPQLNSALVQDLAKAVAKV
Chain of Polyadenylate-binding protein 1 (P11940 whole entry): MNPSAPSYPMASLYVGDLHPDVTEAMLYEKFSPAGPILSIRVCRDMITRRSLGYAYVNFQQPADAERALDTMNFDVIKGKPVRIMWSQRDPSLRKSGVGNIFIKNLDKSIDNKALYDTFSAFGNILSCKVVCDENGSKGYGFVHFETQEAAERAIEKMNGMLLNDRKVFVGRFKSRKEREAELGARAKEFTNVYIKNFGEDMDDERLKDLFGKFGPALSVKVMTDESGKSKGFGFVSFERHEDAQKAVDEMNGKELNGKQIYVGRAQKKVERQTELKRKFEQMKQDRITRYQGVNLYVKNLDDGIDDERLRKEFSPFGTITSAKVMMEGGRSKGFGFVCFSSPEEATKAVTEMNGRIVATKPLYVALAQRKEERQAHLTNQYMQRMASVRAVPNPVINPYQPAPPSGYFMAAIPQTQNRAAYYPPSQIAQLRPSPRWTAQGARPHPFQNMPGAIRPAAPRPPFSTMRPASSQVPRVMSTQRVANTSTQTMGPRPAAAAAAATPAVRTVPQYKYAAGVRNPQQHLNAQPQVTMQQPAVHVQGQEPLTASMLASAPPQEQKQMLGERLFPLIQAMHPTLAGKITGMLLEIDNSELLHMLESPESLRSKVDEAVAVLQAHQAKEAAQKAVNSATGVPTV
Chain of Sphingosine 1-phosphate receptor 2 (O95136 whole entry): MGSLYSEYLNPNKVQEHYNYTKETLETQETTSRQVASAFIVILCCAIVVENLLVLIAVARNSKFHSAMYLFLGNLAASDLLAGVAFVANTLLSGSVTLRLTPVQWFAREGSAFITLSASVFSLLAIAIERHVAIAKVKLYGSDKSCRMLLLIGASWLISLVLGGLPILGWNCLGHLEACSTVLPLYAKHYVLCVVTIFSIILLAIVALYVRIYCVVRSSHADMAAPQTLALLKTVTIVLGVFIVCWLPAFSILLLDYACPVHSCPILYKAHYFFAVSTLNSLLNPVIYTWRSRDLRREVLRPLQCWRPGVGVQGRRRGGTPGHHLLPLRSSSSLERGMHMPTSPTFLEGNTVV
Chain of G-protein coupled receptor 35 (Q9HC97 whole entry): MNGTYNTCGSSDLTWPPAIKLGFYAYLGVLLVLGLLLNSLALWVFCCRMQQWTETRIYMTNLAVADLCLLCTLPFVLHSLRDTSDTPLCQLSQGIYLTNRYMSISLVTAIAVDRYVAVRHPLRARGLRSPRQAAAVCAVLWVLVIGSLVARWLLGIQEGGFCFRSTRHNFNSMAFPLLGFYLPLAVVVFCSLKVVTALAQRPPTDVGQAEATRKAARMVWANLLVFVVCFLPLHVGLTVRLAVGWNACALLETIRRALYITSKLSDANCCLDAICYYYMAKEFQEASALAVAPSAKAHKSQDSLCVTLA

## CCN(CC)c1ccc2c(Cl)c(Br)c(=O)oc2c1
[1]
  IC50: < 0.5 µM (active)
[2]
  IC50: 2.53 µM (active)
[3]
  EC50: 3.1 µM (active)
[4]
  EC50: 2.96 µM (active)
[5]
  CC50: > 40 µM (active)
[6]
  EC50: 2.08 µM (active)
[7]
  EC50: 4.88 µM (active)
[8]
  EC50: 2.75 µM (inconclusive)

## c1cc[n+](CCC[n+]2ccccc2)cc1
[9]
  IC50: 96.5 µM (active)
[10]
  IC50: 3.68 µM (active)

## O=C(O)c1ccc(/C=N/Nc2ccc(C(F)(F)F)cn2)cc1
[11]
  AC50: 5.54 µM (active)
[12]
  AC50: 7.95 µM (active)
[13]
  IC50: > 67.6 µM (inactive)
[14]
  EC50: > 67.6 µM (inactive)

## Nc1ccc(-c2cnc(N)c(C(=O)c3cccnc3)n2)cn1
[11]
  AC50: 36.7 µM (active)

## OCCC/N=C/c1c(-c2ccccc2)nn(-c2nc3ccccc3s2)c1O
[15]
  IC50: > 80 µM (inactive)

## CCOC(=O)N1CCN(C(=O)c2cc(-c3ccc(OCC)cc3)nc3ccccc23)CC1
[16]
  EC50: > 49.7 µM (not active)
Wee1-like protein kinase
  EC50: > 49.7 µM (not active)
[8]
  EC50: 14.5 µM (active)
